Experimental data from ChEMBL document CHEMBL1201862, “PubChem BioAssay data set” (2004).
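Five compound concentrations were applied to cells in 96-well plates for 48 hours; endpoints were derived by simple linear interpolation of the resulting dose-response curve. GI50 = concentration required for 50% inhibition of growth.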 The source made the active and inactive calls. Cut-off read from the data, not from the text of the source: active = GI50 up to about 1.1 µM and inactive = higher.

Legend:
Assay in all cases: inhibition of tumour cell growth, NCI panel, 48 h
[1] = test system: OVCAR-8
[2] = test system: MDA-N
[3] = test system: SNB-19
[4] = test system: NCI-H226
[5] = test system: K562
[6] = test system: COLO 205
[7] = test system: LOX IMVI
[8] = test system: A498
[9] = test system: HOP-92
[10] = test system: NCI-H23
[11] = test system: OVCAR-5
[12] = test system: U-251
[13] = test system: CCRF-CEM
[14] = test system: A549
[15] = test system: SF-268
[16] = test system: NCI-H460
[17] = test system: OVCAR-3
[18] = test system: SW-620
[19] = test system: SF-295
[20] = test system: MCF7
[21] = test system: SN12C
[22] = test system: SF-539
[23] = test system: SK-MEL-5
[24] = test system: RPMI-8226
[25] = test system: BT-549
[26] = test system: EKVX
[27] = test system: RXF 393
[28] = test system: TK-10
[29] = test system: UACC-257
[30] = test system: IGROV-1
[31] = test system: CAKI-1
[32] = test system: T47D
[33] = test system: UO-31
[34] = test system: SK-OV-3
[35] = test system: ACHN
[36] = test system: 786-0
[37] = test system: PC-3
[38] = test system: MOLT-4
[39] = test system: OVCAR-4
[40] = test system: HL-60
[41] = test system: HCT-15
[42] = test system: Hs-578T
[43] = test system: SK-MEL-2
[44] = test system: MDA-MB-231
[45] = test system: NCI-H522
[46] = test system: NCI/ADR-RES
[47] = test system: M14
[48] = test system: HT-29
[49] = test system: UACC-62
[50] = test system: DU-145
[51] = test system: HCT-116
[52] = test system: KM12
[53] = test system: MDA-MB-435
[54] = test system: SR
[55] = test system: SNB-75
[56] = test system: HCC 2998
[57] = test system: Malme-3M
[58] = test system: HOP-62

**Q.** What does the source list for `CSc1ncc2c(n1)-c1ccccc1OC2N1CCCCC1` (stereo unspecified)?
**A.** GI50 [1]: 63.8 µM (inactive); GI50 [2]: 38.1 µM (inactive); GI50 [3]: 68.7 µM (inactive); GI50 [4]: 32 µM (inactive); GI50 [5]: 29.5 µM (inactive); GI50 [6]: 44.8 µM (inactive); GI50 [7]: 21.1 µM (inactive); GI50 [8]: 22.2 µM (inactive); GI50 [9]: 25 µM (inactive); GI50 [10]: 41.7 µM (inactive); GI50 [11]: 42 µM (inactive); GI50 [12]: 39 µM (inactive); GI50 [13]: 20.6 µM (inactive); GI50 [14]: 39.4 µM (inactive); GI50 [15]: 45 µM (inactive); GI50 [16]: 30.4 µM (inactive); GI50 [17]: 38.5 µM (inactive); GI50 [18]: 40.5 µM (inactive); GI50 [19]: 38.5 µM (inactive); GI50 [20]: 23.8 µM (inactive); GI50 [21]: 29.8 µM (inactive); GI50 [22]: 51.9 µM (inactive); GI50 [23]: 20.3 µM (inactive); GI50 [24]: 24.4 µM (inactive); GI50 [25]: 24.3 µM (inactive); GI50 [26]: 35.2 µM (inactive); GI50 [27]: 32.1 µM (inactive); GI50 [28]: 27.3 µM (inactive); GI50 [29]: 34.6 µM (inactive); GI50 [30]: 40.1 µM (inactive); GI50 [31]: 21.7 µM (inactive); GI50 [32]: 27.3 µM (inactive); GI50 [33]: 32.5 µM (inactive); GI50 [34]: > 100 µM (inactive); GI50 [35]: 37.1 µM (inactive); GI50 [36]: 29.4 µM (inactive); GI50 [37]: 48.2 µM (inactive); GI50 [38]: 20.2 µM (inactive); GI50 [39]: 28.8 µM (inactive); GI50 [40]: 19.7 µM (inactive); GI50 [41]: 28.9 µM; GI50 [42]: 26.9 µM (inactive); GI50 [43]: 25.9 µM (inactive); GI50 [44]: 23 µM (inactive); GI50 [45]: 18.9 µM (inactive); GI50 [46]: 40.6 µM (inactive); GI50 [47]: 49.3 µM (inactive); GI50 [48]: 25.4 µM (inactive); GI50 [49]: 22.4 µM (inactive); GI50 [50]: 34.4 µM (inactive); GI50 [51]: 31 µM (inactive); GI50 [52]: 38.5 µM (inactive); GI50 [53]: 31.1 µM (inactive); GI50 [54]: 18 µM (inactive); GI50 [55]: 66.5 µM (inactive)

**Q.** With `O=C1CC2(CCC(O)(c3cccs3)C(C(=O)c3cccs3)C2)C(=O)c2ccccc2N1` (stereo unspecified) as the compound, how does the GI50 [1] read?
**A.** > 100 µM (inactive)

**Q.** What about the GI50 [2] of the same compound?
**A.** > 100 µM (inactive)

**Q.** What about the GI50 [4] of the same compound?
**A.** > 100 µM (inactive)

**Q.** What about the GI50 [5] of the same compound?
**A.** 40.8 µM (inactive)

**Q.** And the GI50 [6]?
**A.** 33.7 µM (inactive)

**Q.** And the GI50 [7]?
**A.** 89.3 µM (inactive)

**Q.** What about the GI50 [8] of the same compound?
**A.** > 100 µM (inactive)

**Q.** What about the GI50 [9] of the same compound?
**A.** > 100 µM (inactive)

**Q.** And the GI50 [10]?
**A.** > 100 µM (inactive)

**Q.** What about the GI50 [11] of the same compound?
**A.** > 100 µM (inactive)

**Q.** And the GI50 [12]?
**A.** 90.4 µM (inactive)

**Q.** And the GI50 [13]?
**A.** 22.5 µM (inactive)

**Q.** What about the GI50 [14] of the same compound?
**A.** 95.7 µM (inactive)

**Q.** What about the GI50 [15] of the same compound?
**A.** > 100 µM (inactive)

**Q.** What about the GI50 [16] of the same compound?
**A.** 16.5 µM (inactive)

**Q.** What about the GI50 [17] of the same compound?
**A.** 63.8 µM (inactive)

**Q.** What about the GI50 [18] of the same compound?
**A.** > 100 µM (inactive)

**Q.** And the GI50 [19]?
**A.** > 100 µM (inactive)

**Q.** What about the GI50 [20] of the same compound?
**A.** 77.4 µM (inactive)

**Q.** What about the GI50 [21] of the same compound?
**A.** > 100 µM (inactive)

**Q.** And the GI50 [22]?
**A.** > 100 µM (inactive)

**Q.** And the GI50 [23]?
**A.** 11.8 µM (inactive)

**Q.** And the GI50 [25]?
**A.** > 100 µM (inactive)

**Q.** And the GI50 [26]?
**A.** > 100 µM (inactive)

**Q.** What about the GI50 [27] of the same compound?
**A.** > 100 µM (inactive)

**Q.** And the GI50 [28]?
**A.** > 100 µM (inactive)

**Q.** What about the GI50 [29] of the same compound?
**A.** > 100 µM (inactive)

**Q.** And the GI50 [56]?
**A.** 38.5 µM (inactive)

**Q.** And the GI50 [30]?
**A.** > 100 µM (inactive)

**Q.** And the GI50 [31]?
**A.** > 100 µM (inactive)

**Q.** And the GI50 [32]?
**A.** 18.2 µM (inactive)

**Q.** And the GI50 [33]?
**A.** > 100 µM (inactive)

**Q.** And the GI50 [34]?
**A.** > 100 µM (inactive)

**Q.** And the GI50 [37]?
**A.** 51.8 µM (inactive)

**Q.** And the GI50 [38]?
**A.** 29 µM (inactive)

**Q.** What about the GI50 [40] of the same compound?
**A.** 29.2 µM (inactive)

**Q.** What about the GI50 [41] of the same compound?
**A.** 28.5 µM

**Q.** And the GI50 [42]?
**A.** > 100 µM (inactive)

**Q.** And the GI50 [43]?
**A.** > 100 µM (inactive)

**Q.** What about the GI50 [44] of the same compound?
**A.** > 100 µM (inactive)

**Q.** What about the GI50 [46] of the same compound?
**A.** 67.1 µM (inactive)

**Q.** And the GI50 [47]?
**A.** > 100 µM (inactive)

**Q.** And the GI50 [48]?
**A.** 40.6 µM (inactive)

**Q.** And the GI50 [49]?
**A.** > 100 µM (inactive)

**Q.** And the GI50 [57]?
**A.** > 100 µM (inactive)

**Q.** What about the GI50 [50] of the same compound?
**A.** 67.3 µM (inactive)

**Q.** And the GI50 [51]?
**A.** 53 µM (inactive)

**Q.** What about the GI50 [53] of the same compound?
**A.** > 100 µM (inactive)

**Q.** What about the GI50 [54] of the same compound?
**A.** > 100 µM (inactive)

**Q.** And the GI50 [55]?
**A.** 37.7 µM (inactive)

**Q.** And the GI50 [58]?
**A.** > 100 µM (inactive)
